This is an account of results in publication PMC12668310, “High‐Throughput Synthesis and Screening of a Cyanimide Library Identifies Selective Inhibitors of ISG15‐Specific Protease mUSP18” (Angewandte Chemie (International Ed. in English), 2025).

The assay concerns the target T1, mUSP18 (Mus musculus, UniProt Q9WTV6).
T1 construct: (46-368); His-tag (N); made in house
T1 sequence (Q9WTV6 46-368): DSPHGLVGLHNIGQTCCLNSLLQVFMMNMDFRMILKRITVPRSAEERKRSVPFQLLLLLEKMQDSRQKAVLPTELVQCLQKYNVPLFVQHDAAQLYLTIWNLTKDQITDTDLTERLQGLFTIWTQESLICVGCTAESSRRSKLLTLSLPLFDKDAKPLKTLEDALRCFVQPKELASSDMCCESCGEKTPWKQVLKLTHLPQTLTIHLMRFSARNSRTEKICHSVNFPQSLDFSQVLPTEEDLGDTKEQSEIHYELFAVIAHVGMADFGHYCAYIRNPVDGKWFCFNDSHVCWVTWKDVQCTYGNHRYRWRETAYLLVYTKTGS
Nature of the assay: High-throughput screening, ISG15ct-RhoMP, single dose 1.25 µM. Format: biochemical, murine. To be noted: mUSP18 %inhibition.

Setting [1] is: carboxylic acid (CA) building block alone, read-out: %inh CA only.
Setting [2] is: carboxylic acid (CA) with coupling reagents DIC/HOBT, read-out: %inh CA + DIC/HOBT.

Where two headings read alike, the source gives them in different places.

As for `Cc1cc(NS(=O)(=O)c2cccc(C(=O)O)c2)no1` [CA180], the inhibition at 1.25 µM came to 2.04% under setting [1] and 3.97% under setting [2].
The matching figures for `CN1CCN(C(=O)C2CC=CCC2C(=O)O)CC1` (stereo not shown) [CA181]: 2.59% and 16.4%.
Turning to `O=C(O)c1ccc(S(=O)(=O)N2CCOCC2)cc1` [CA182], the inhibition at 1.25 µM under setting [1] was 2.85% and the inhibition at 1.25 µM under setting [2] was found to be 2.77%.
Regarding `O=C(O)Cc1csc(-n2cccc2)n1` [CA183], the inhibition at 1.25 µM is 4.52% under setting [1] and 3.13% under setting [2].
The matching figures for `Cc1cc(-c2nc(C)sc2CC(=O)O)c(C)s1` [CA184]: 3.02% and 10.3%.
On the same counts, the results for `O=C(O)C1CC(=O)N(CCOc2ccccc2Cl)C1` (stereo not shown) [CA185] are 3.64% and 9.2%.
Take `O=C(O)c1ccc(-n2ncc(Cl)c(Cl)c2=O)cc1` [CA186]: the inhibition at 1.25 µM under setting [1] was found to be 20.6% and the inhibition at 1.25 µM under setting [2] is 9.85%.
The matching figures for `O=C(O)c1ccc(CN2CCOCC2)cc1` [CA187]: 12.1% and -2.66%.
On the same counts, the results for `O=C(O)c1cnc(-c2ccco2)s1` [CA188] are 10.2% and -0.34%.
For the compound `O=C(O)Cc1csc(-c2cccs2)n1` [CA189], the inhibition at 1.25 µM under setting [1] came to 4.78% and the inhibition at 1.25 µM under setting [2] was -9.04%.
The matching figures for `O=C(O)c1csc(-c2ccccn2)n1` [CA190]: 9.48% and 6.54%.
The matching figures for `Cc1noc(C)c1COc1ccc(CC(=O)O)cc1` [CA191]: 4.33% and 1.25%.
On the same counts, the results for `O=C(O)c1cnc(-c2cccs2)s1` [CA192] are 11.7% and 0.91%.
Turning to `O=C(O)CC1=NN(c2ncc(C(F)(F)F)cc2Cl)C(=O)C1` [CA193], the inhibition at 1.25 µM reads like this: under setting [1], 5.93%; under setting [2], 4.27%.
In the case of `O=C(O)c1cccc(COc2cccc(F)c2)c1` [CA194], the inhibition at 1.25 µM reads like this: under setting [1], 9.72%; under setting [2], 3.17%.
Regarding `O=C(O)c1occc1COc1ccccc1` [CA195], the inhibition at 1.25 µM under setting [1] was 11% and the inhibition at 1.25 µM under setting [2] came out at 6.35%.
On the same counts, the results for `Cc1nc(-c2cnn(C)c2)sc1C(=O)O` [CA196] are 6.54% and 3.44%.
The matching figures for `O=C(O)C1CCN(C(=O)CCOc2ccccc2)CC1` [CA197]: 4.78% and 1.19%.
The matching figures for `Cn1cc(S(=O)(=O)N2CCCC(C(=O)O)C2)cn1` (stereo not shown) [CA198]: 0.78% and 2.3%.
Consider `O=C(O)c1cc(S(=O)(=O)N2CCOCC2)c[nH]1` [CA199], for which the inhibition at 1.25 µM runs as follows: under setting [1], 1.4%; under setting [2], 2.51%.
The matching figures for `COc1ccc(OCc2cc(C)on2)c(C(=O)O)c1` [CA200]: 0.4% and 3.72%.
Regarding `O=C(O)C1CC(=O)N(CCN2CCOCC2)C1` (stereo not shown) [CA201], the inhibition at 1.25 µM was 1.58% under setting [1] and 1.88% under setting [2].
The matching figures for `O=C(O)Cc1cccc(OCc2cccnc2)c1` [CA202]: 0.44% and 3.16%.
As for `CN(Cc1cccnc1)S(=O)(=O)c1cc(C(=O)O)n(C)c1` [CA203], the inhibition at 1.25 µM is, setting by setting: under setting [1], 0.22%; under setting [2], 4.09%.
The matching figures for `Cc1n[nH]c(C)c1S(=O)(=O)N1CCC(C(=O)O)CC1` [CA204]: -0.12% and 3.04%.
On the same counts, the results for `Cc1ccc(-c2cc(C(=O)O)[nH]n2)o1` [CA205] are 0.0344% and 4.51%.
The matching figures for `O=C(O)c1occc1CN1CCOCC1` [CA206]: 1.55% and 4.49%.
As for `O=C(O)c1ccc(COc2ccccc2Br)cc1` [CA207], the inhibition at 1.25 µM reads like this: under setting [1], -2.79%; under setting [2], 10.7%.
The matching figures for `O=C(O)c1cccc(-c2cnco2)c1` [CA208]: 3.78% and 11.1%.
As to `O=C1CCC(=O)N(c2ccc(C(=O)O)cc2)N1` [CA209], the inhibition at 1.25 µM is -2.74% under setting [1] and 14.4% under setting [2].
On the same counts, the results for `O=C(O)c1coc(-c2cccnc2)n1` [CA210] are 21% and 4.16%.
The matching figures for `O=C(O)c1ccc(=O)n(Cc2ccccc2)n1` [CA211]: 14.5% and 0.49%.
The matching figures for `Cc1nc(-c2cccnc2)sc1C(=O)O` [CA212]: 10.5% and 0.87%.
With `CN1CCN(C(=O)c2ccccc2C(=O)O)CC1` [CA213], the inhibition at 1.25 µM by setting is: under setting [1], 9.22%; under setting [2], -1.04%.
In the case of `Cc1cc(C(=O)O)c(C)n1-c1ccon1` [CA214], the inhibition at 1.25 µM by setting is: under setting [1], 6.76%; under setting [2], 33.1%.
The matching figures for `O=C(O)c1cccc(-c2ncn[nH]2)c1` [CA215]: 8.13% and 1.55%.
The matching figures for `O=C(O)c1ccnn1C1CCOCC1` [CA216]: 6.01% and 2.43%.
On the same counts, the results for `COc1ccc(C(=O)O)cc1S(=O)(=O)N1CCCCCC1` [CA217] are 6.36% and 0.58%.
Regarding `Cn1nc(C(=O)N2CCOCC2)cc1C(=O)O` [CA218], the inhibition at 1.25 µM amounted to 7.94% under setting [1] and 0.97% under setting [2].
With `Cc1nn(C2CCOCC2)c(C)c1C(=O)O` [CA219], the inhibition at 1.25 µM is 7.18% under setting [1] and -0.2% under setting [2].
On the same counts, the results for `O=C(O)C1CCOC2(CCC2)C1` (stereo not shown) [CA220] are 7.46% and -0.86%.
The matching figures for `O=C(O)c1cnn(CCN2CCCC2)c1` [CA221]: 5.71% and 3.5%.
The matching figures for `O=C(O)C1(c2cccs2)CC1` [CA222]: 3.38% and 3.8%.
As to `O=C(O)c1cc(-c2ccco2)on1` [CA223], the inhibition at 1.25 µM runs as follows: under setting [1], 2.35%; under setting [2], 4.1%.
The matching figures for `O=C(O)c1ccc(Cn2cc(Br)cn2)o1` [CA224]: 3.05% and 5.82%.
The matching figures for `O=C(O)C(c1ccccc1)n1cnnn1` (stereo not shown) [CA225]: -0.48% and -0.48%.
The matching figures for `Cc1csc(N2CCCC(C(=O)O)C2)n1` (stereo not shown) [CA226]: 2.29% and 3.37%.
As to `CC(C(=O)O)n1nc(C(F)(F)F)cc1C1CC1` (stereo not shown) [CA227], the inhibition at 1.25 µM under setting [1] came out at 2.61% and the inhibition at 1.25 µM under setting [2] is 2.83%.
The matching figures for `O=C(O)C1CCCN1C(=O)Cc1ccccc1` (stereo not shown) [CA228]: 2.77% and 4.1%.
`O=C(O)CC1(n2cccc2)CCCCC1` [CA229]: the inhibition at 1.25 µM runs as follows: under setting [1], 3.52%; under setting [2], 5.66%.
On the same counts, the results for `O=C(O)c1cc(S(=O)(=O)NCCCN2CCCC2=O)ccc1Cl` [CA230] are 4.86% and 3.56%.
The matching figures for `O=C(O)c1ccc(OCn2cc(Cl)cn2)cc1` [CA231]: 5.6% and 6.49%.
The matching figures for `O=C(O)Cc1cnn(-c2ccccc2)c1` [CA232]: 1.32% and 8.28%.
In the case of `CC(C)c1nc(Cn2cc(C(=O)O)ccc2=O)cs1` [CA233], the inhibition at 1.25 µM reads like this: under setting [1], 1.25%; under setting [2], 15%.
On the same counts, the results for `CCS(=O)(=O)N1CCC(C(=O)O)(c2ccccc2)CC1` [CA234] are 19.5% and 0.71%.
The matching figures for `O=C(O)c1ccc(CNS(=O)(=O)c2ccc(F)c(F)c2F)cc1` [CA235]: 13.6% and 1.22%.
Turning to `O=C(O)c1csc(C2CC2)n1` [CA236], the inhibition at 1.25 µM under setting [1] stood at 9.58% and the inhibition at 1.25 µM under setting [2] is 1.88%.
On to `CC1CCCC(N2CC(C(=O)O)CC2=O)C1C` (stereo not shown) [CA237], for which the inhibition at 1.25 µM was 7.37% under setting [1] and -3.69% under setting [2].
On the same counts, the results for `O=C(O)c1csc(-c2cnc[nH]2)n1` [CA238] are 6.66% and -0.05%.
For the compound `Cc1cc(C(=O)O)c(C)n1C1CC1` [CA239], the inhibition at 1.25 µM under setting [1] was 7.06% and the inhibition at 1.25 µM under setting [2] was 5.98%.
On the same counts, the results for `O=C(O)c1cnn(-c2cccc(Br)c2)c1` [CA240] are 7.83% and 6.83%.
The matching figures for `CN(CC(=O)N1CCCC(C(=O)O)C1)c1ccc(Cl)cn1` (stereo not shown) [CA241]: 5.13% and 1.85%.
On the same counts, the results for `O=C(O)C1CCN(C(=O)c2ccccn2)CC1` [CA242] are 6.36% and 2.43%.
Regarding `O=C(O)c1ccc(Cn2cncn2)cc1` [CA243], the inhibition at 1.25 µM reads like this: under setting [1], 6.44%; under setting [2], 2.23%.
On to `O=C(O)c1cc(Cl)nc(N2CCCC2)c1` [CA244], for which the inhibition at 1.25 µM was determined as 9.03% under setting [1] and 3.68% under setting [2].
